Read-outs that look alike come from different tables or passages of the source. Values belong to the compound of their own block, whether it stands above or below them. Square brackets hold non-standard residues; d marks the D form. Ends that are not written are not given here. Peptide text beside a SMILES is read from it. Dmt = Cc1cc(O)cc(C)c1C[C@H](N)C(=O)O; Tic = O=C(O)[C@@H]1Cc2ccccc2CN1
Key:
[1] = Half-life in human plasma (plasma stability); assay type: in vitro ADME
From the text: NMURs agonists, which are NMU-8 analogues, were synthesized with a HPLC purity > 98 %, as described in literature. […] All peptides were used as solutions in water. Peptide sequences and stability data are available in the Table S1 (Additional File 1).

[2] = test system: HEK293 R2_HA cell line overexpressing NMUR2; test: Ca2+ mobilization assay (fluo-4) in HEK293 R2_HA cells; assay type: cell-based, human
Protocol: (§1) Cells grown on poly-lysine-coated 48-well plates (Corning) for 24 h were stained for 15 min at 37 °C with Hoechst 33342 (Invitrogen). PBS rinsed cells were loaded with Fluo-4 AM (5 µM; Invitrogen) for 45–60 min at 37 °C in the presence of 0.5 % of pluronic-127 in the incubation medium (growth medium without FBS and PS, supplemented with 0.1 % BSA). Cells were rinsed with warm PBS and bathed in a final volume of 300 µl of incubation medium. Images were acquired using AxioVert fluorescence inverted microscope (Zeiss, Germany) with the use of 10 x dry objective (NA 0.3). First, an image of Hoechst 33342-stained nuclei was acquired. Next, a time-lapse image sequence in green channel (Fluo-4) was recorded with exposure time of 500 ms in the same field of view. […] For analysis of CRC cells we chose minimal concertation that induce significant fluorescence change. NMU-9 (1 µM) and NMUR2 agonist (200 nM ~ 5 times the EC50 determined in literature). […] Quantification of the effects is described in Additional Files 1 and 3. […]
(§2) Quantification of the calcium mobilisation were performed with the use of FIJI image processing package***. […] Fluorescence intensity change over time was measured in each ROI in corresponding movie sequence of Fluo-4 stained cells. […] Such background-corrected values of fluorescence intensity were used for further calculations. […]

ERK1/2 in Caco-2 cells = test: ERK1/2 activation analysis (immunoblot) in Caco-2 cells; assay type: cell-based, human; settings: SBL-NMU-17 250 nM, immunoblot pERK1/2 normalised to ERK1/2 and α-tubulin, n = 5 (NMU-9 n = 1)
Protocol: (§3) CRC cells were lysed with RIPA buffer (100 mM TRIS-HCl, pH 7.5, 300 mM NaCl, 0.2 % SDS with 1 % IGEPAL CA-630 and the Halt™ Protease Inhibitor Cocktail (Thermo Fisher Scientific)) with subsequent centrifugation (18,000 x g, 4 °C, 20 min). Total protein concentration in lysate was quantified by BCA method (Pierce BCA Protein Assay; Thermo Fisher Scientific). Samples were loaded and separated by SDS-PAGE (Mini-PROTEAN TGX Stain-Free Gels; Bio-Rad Laboratories, CA, USA) and transferred onto nitrocellulose membranes (Bio-Rad Laboratories). NMU protein was detected with rabbit anti-NMU antibody (Genetex, CA, USA), for ERK1/2 kinases analysis mouse anti-ERK1/2 (Santa Cruz Biotechnology, USA) and rabbit anti-pERK1/2 antibodies (Invitrogen) were used. In EVs (extracellular vesicles) purity analysis we used rabbit antibodies anti-GM130, anti-annexin V and anti-flotilin-1 (Cell Signaling Technologies, Danvers, MA, USA). Proteins used as loading controls were detected by mouse anti-β-actin, mouse anti-α-tubulin or rabbit anti-GAPDH antibody (Abcam, Cambridge, GB). We used secondary HRP-conjugated goat anti-mouse (Santa Cruz Biotechnology) or anti-rabbit antibodies (Invitrogen). The signal was detected by chemiluminescence (Thermo Fisher Scientific) with Kodak BioMax Light Film from Eastman Kodak (NY, USA). […]

[3] = test system: ERK1/2 in HEK293 R2_HA cells; test: ERK1/2 activation analysis (immunoblot) in HEK293 R2_HA cells; assay type: cell-based, human; settings: HEK293 R2_HA clone, n = 1
Protocol: as §3, with “In EVs (extracellular vesicles) purity analysis we used rabbit antibodies anti-GM130, anti-annexin V and anti-flotilin-1 (Cell Signaling Technologies, Danvers, MA, USA).” left out, “We used secondary HRP-conjugated goat anti-mouse (Santa Cruz Biotechnology) or anti-rabbit antibodies (Invitrogen).” left out
Fig. S1 HEK293 R2_HA clones with exogenous NMUR2 overexpression. (A) NMUR2 mRNA levels were analysed in HT29 with endogenous expression of NMUR2 and compared to those in HEK293 R2_HA clones with exogenous expression of NMUR2 (**p ≤ 0,01; n ≥ 3). […] The changes in fluorescence were detected and analysed as described in the Methods section. […]

HT29 cells = test: Ca2+ mobilization assay (fluo-4) in HT29 cells; assay type: cell-based, human
Protocol: as §1, §2

NMUR2 = NMUR2 agonist, cited from earlier work
From the text: (§4) NMURs agonists, which are NMU-8 analogues, were synthesized with a HPLC purity > 98 %, as described in literature.

HCT116 cells = test: Ca2+ mobilization assay (fluo-4) in HCT116 cells; assay type: cell-based, human; settings: 1 µM NMU-9, 40 nM NMUR1 agonist, percentage of cells above threshold, n = 5
Protocol: as §1, with “change.” for “change. NMU-9 (1 µM) and NMUR2 agonist (200 nM ~ 5 times the EC50 determined in literature).”
Quantification of the calcium mobilisation were performed with the use of FIJI image processing package***. […] Fluorescence intensity change over time was measured in each ROI in corresponding movie sequence of Fluo-4 stained cells. To acquire the change of background fluorescence over time in each movie sequence, additional ROIs were created by the analyst manually in the sites devoid of cells. […]

[4] = cited from earlier work
From the text: Supplement 13046_2021_2073_MOESM1_ESM.docx, table 1: Table S1. […] NMURs agonists, which are NMU-8 analogues, were synthesized with a HPLC purity > 98 %, as described in literature.

NMUR1 = NMUR1 agonist, cited from earlier work
From the text: as §4

[5] = test system: NMUR1 and NMUR2 expression in CRC cells; test: 5-aza-CdR treatment for NMUR1 and NMUR2 expression analysis (real-time PCR); assay type: cell-based, human; settings: 50 µM for 96 h (4 days), n ≥ 4
Protocol: Total RNA was isolated with the ReliaPrep™ RNA Cell Miniprep System (Promega, Madison, WI, USA). The quality control of isolated RNA was performed using the 2100 Bioanalyser (Agilent Technologies, Palo Alto, CA, USA) according to the manufacturer’s instructions. 1 µg of the isolated total RNA (RIN ≥ 8) was reverse transcribed using the High Capacity cDNA Reverse Transcription Kit (Applied Biosystems, CA, USA) according to the manufacturer’s instructions. Real time PCR for human NMU, NMUR1, NMUR2, NTSR1, GHSR1b, GAPDH and β-actin was performed using FastStart Essential DNA Probes Master or FastStart Essential DNA Green Master (Roche, Basel, Switzerland). Amplification was performed on a Roche LightCycler 96. GADPH and/or β-actin mRNA transcripts were used as internal control genes. The amount of target in the various samples was calculated using the 2^−ΔCt relative quantification method with DataAssist v.3.01.
Cells were seeded on 6-well plates (Corning, NY, USA). After cells attachment (6 h), DNA methyltransferase inhibitor, 5-aza-2’-deoxycytidine (5-aza-CdR) (Sigma-Aldrich) was added at final concentration of 50 µM. Medium containing 5-aza-CdR was refreshed every 24 h. After 96 h, total RNA was isolated and analysed. The real-time PCR products were analysed on a 2 % agarose gel with ethidium bromide (Sigma-Aldrich) and visualized.

[6] = species not given; cited from earlier work
From the text: Physiologically, NMU has been predominantly found in the central nervous system and in the periphery. In the gastrointestinal tract, locally administered NMU leads to smooth muscle contraction, regulating intestinal motility and regional blood flow, but epithelial cells are not the source of the peptide in the gastrointestinal tract under normal conditions. Human neuromedin U synthesis is tightly regulated at the genetic, epigenetic, transcriptional and post-transcriptional levels, regulating access to cellular microenvironments. Peptide precursors can be produced from three ...

Compound: CC(C)C[C@H](NC(=O)[C@H](Cc1ccccc1)NC(=O)[C@@H](N)Cc1ccc(O)cc1)C(=O)N[C@@H](Cc1ccccc1)C(=O)N[C@@H](CCCNC(=N)N)C(=O)N1Cc2ccccc2C[C@H]1C(=O)N[C@@H](CCCNC(=N)N)C(=O)N[C@@H](CC(N)=O)C(N)=O [SBL-NMU-17] (H-YFLFR[Tic]RN-NH2)
Metabolite observed in plasma stability studies ([1]; human plasma, both peptides yielded a 7-amino acid long metabolite): only Tyr was lost
Minimal effective concentration (Ca2+ influx) ([2]; HEK293 R2_HA cells loaded with fluo-4): 150 nM
Calcium mobilisation (fluo-4) ([2]; HEK293 R2_HA, NMU-9 0.7 µM, SBL-NMU-17 150 nM, n = 3): significant calcium mobilisation
Phosphorylation (activation) of ERK1/2 kinases (ERK1/2 in Caco-2 cells): induced ERK1/2 kinase activation
ERK1/2 phosphorylation [3]: observed ERK1/2 phosphorylation
Minimal concentration that induces significant fluorescence change (Ca2+ mobilisation) (HT29 cells; CRC cells, tested 150, 200, 300 nM): 200 nM
Change in fluo-4 fluorescence intensity caused by Ca2+ mobilisation (HT29 cells; HT29 cells, 1 µM NMU-9, 200 nM NMUR2 agonist, percentage of cells above threshold, n = 5): significantly responded
EC50 (NMUR2; IP3 pathway activation data): 45.5 nM
IC50 (NMUR2; competitive binding assay): 13 nM

Half-life in human plasma (t1/2) ([1]; human): 4.60 ± 0.4 min
Compound: GYFLFRPRN-NH2 [NMU-9]
Metabolite observed in plasma stability studies [1]: the peptide devoid of the Gly-Tyr segment was quickly observed

Compound: CC(=O)N[C@@H](Cc1ccc(O)cc1)C(=O)N[C@@H](Cc1ccccc1)C(=O)N[C@@H](CC(C)C)C(=O)N[C@@H](Cc1c(C)cc(O)cc1C)C(=O)N[C@@H](CCCNC(=N)N)C(=O)N1CCC[C@H]1C(=O)N[C@@H](CCCNC(=N)N)C(=O)N[C@@H](CC(N)=O)C(N)=O [SBL-NMU-21] (Ac-YFL[Dmt]RPRN-NH2)
Change in fluo-4 fluorescence intensity caused by Ca2+ mobilisation (HCT116 cells): did not detect statistically significant changes
Half-life in human plasma (t1/2) [4]: 4.225 h
EC50 (NMUR1; calculated based on the IP3 pathway activation data): 7.7 nM
IC50 (NMUR1; calculated based on the competitive binding assay): 0.36 nM

Compound: Nc1ncn([C@H]2C[C@H](O)[C@@H](CO)O2)c(=O)n1 [5-aza-CdR, 5-aza-2’-deoxycytidine]
NMUR1 and NMUR2 expression after DNA demethylation [5]: regulated by promoter methylation

Compound: NMU: Native neuromedin U peptide, secretory neuropeptide with amidated C-terminal pentapeptide (FRVDEEFQSPFASQSRGYFLFRPRN-NH2; UniProt P48645 142-166, looked up)
estimated half-life in plasma [6]: less than 5 min
